Experiments:
[1] = test system: mushroom tyrosinase (EC 1.14.18.1); test: Tyrosinase inhibition assay (test for whitening activity); assay type: biochemical
Description: Tyrosinase activity is determined in reaction mixtures containing […], 30 units/ml of mushroom tyrosinase (EC 1.14.18.1), 75 mM sodium phosphate (pH 7.5), and test sample at the indicated concentrations. The reaction is conducted at room temperature and is monitored by measuring the increase in OD405 as melanin pigment is produced.
Tyrosinase activity was determined by measuring the rate of change of optical density at 490 nm as tyrosine was converted into dopachrome. (Tyrosinase catalyzes the conversion of tyrosine into DOPA quinone, which spontaneously converts into dopachrome.) The rate of tyrosinase activity in the presence of various concentrations of test sample was measured at room temperature in a reaction mixture containing 50 mM sodium phosphate (pH 6.75), 275 μM tyrosine and 25U/ml mushroom tyrosinase (wherein U refers to the units of enzyme activity. Readings were made at one minute intervals for ten minutes and the reaction rate was calculated by linear regression. Each concentration was run in triplicate. Inhibition of tyrosinase activity was expressed as a percentage of the activity measured for the untreated control mixture (no test sample). An EC50 (the concentration of test sample that inhibits 50% of tyrosinase activity) was calculated.

[2] = test system: Cloudman S91 melanocytes; test: Cell-based whitening/tanning assay (melanocyte pigmentation assay); conditions: concentration 30 (30μM in method), 5-day treatment, 10nM MSH
Description: The melanocyte pigmentation assay measures a test sample's ability to inhibit pigmentation. […] After a 5-day treatment period with each condition tested in triplicate wells, the cells were harvested by washing with PBS and adding 5% trichloroacetic acid to each well. After a 15 minute incubation the acid was aspirated and replaced with 200μl/well of 10% dimethyl sulfoxide/1N sodium hydroxide. The plates were sealed and incubated at 65° C. for 30 minutes. 200μl of each digestion mixture was then transferred to a well of a 96-well microtiter plate and optical densities were read at 405 nm.
An EC50 (the concentration of test sample that inhibits 50% of pigmentation) was calculated for each sample.

`Oc1ccc(O)cc1` [Hydroquinone] was tested, and the “% inhibition (tyrosinase)” value ([1]; concentration 1.25 (M)) was 26.7%, the “mod/min mean (tyrosinase reaction rate)” value ([1]; concentration 1.25 (M)) was 7.95 mod/min and the “% inhibition (tyrosinase)” value ([1]; concentration 2.5 (M)) was 45.5%. For the same molecule, the “mod/min mean (tyrosinase reaction rate)” value ([1]; concentration 2.5 (M)) was 5.92 mod/min, the “% inhibition (tyrosinase)” value ([1]; concentration 10.5 (M)) was 75.8% and the “mod/min mean (tyrosinase reaction rate)” value ([1]; concentration 10.5 (M)) was 2.63 mod/min. For the same molecule, the “% inhibition (tyrosinase)” value ([1]; concentration 20 (M)) was 92.2%, the “mod/min mean (tyrosinase reaction rate)” value ([1]; concentration 20 (M)) was 0.85 mod/min and the inhibition at 30 µM ([2]; Melanocyte, 120 h, read-out: % Stimulation (+)/ Inhibition (−) of pigmentation) was 36.6%. For the same molecule, the “mean (optical density at 405 nm, pigmentation)” value [2] was 0.801.

Reference: US6365137B1, “Skin whitening agents” (Collaborative Laboratories, Inc., priority 1999, dated 2002)
